{
  "source": "paper PMC8027564",
  "about": "“A novel luminescence-based β-arrestin recruitment assay for unmodified receptors” (The Journal of Biological Chemistry, 2021)",
  "key": {"[1]": {"test_system": "Hek293 cells without cotransfection of any receptor", "test": "MeNArC and EeNArC negative controls, Hek293 without cotransfection of any receptor", "assay_type": "cell-based, human", "settings": "10 µM agonist"}, "MOR": {"target": "MOR (Homo sapiens, UniProt P35372)", "sequence (P35372 whole entry)": "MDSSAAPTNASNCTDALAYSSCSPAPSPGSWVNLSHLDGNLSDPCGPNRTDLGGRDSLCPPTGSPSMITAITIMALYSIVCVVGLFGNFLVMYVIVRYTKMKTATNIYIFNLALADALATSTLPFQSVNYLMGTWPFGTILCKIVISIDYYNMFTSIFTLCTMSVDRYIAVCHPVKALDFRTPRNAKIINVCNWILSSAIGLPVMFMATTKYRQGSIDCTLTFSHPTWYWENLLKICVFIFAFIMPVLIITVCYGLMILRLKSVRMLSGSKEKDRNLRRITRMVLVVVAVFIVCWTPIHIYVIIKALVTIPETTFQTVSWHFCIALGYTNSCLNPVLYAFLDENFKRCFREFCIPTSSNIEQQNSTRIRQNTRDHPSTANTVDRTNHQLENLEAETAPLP", "sequence (P32121 whole entry partner)": "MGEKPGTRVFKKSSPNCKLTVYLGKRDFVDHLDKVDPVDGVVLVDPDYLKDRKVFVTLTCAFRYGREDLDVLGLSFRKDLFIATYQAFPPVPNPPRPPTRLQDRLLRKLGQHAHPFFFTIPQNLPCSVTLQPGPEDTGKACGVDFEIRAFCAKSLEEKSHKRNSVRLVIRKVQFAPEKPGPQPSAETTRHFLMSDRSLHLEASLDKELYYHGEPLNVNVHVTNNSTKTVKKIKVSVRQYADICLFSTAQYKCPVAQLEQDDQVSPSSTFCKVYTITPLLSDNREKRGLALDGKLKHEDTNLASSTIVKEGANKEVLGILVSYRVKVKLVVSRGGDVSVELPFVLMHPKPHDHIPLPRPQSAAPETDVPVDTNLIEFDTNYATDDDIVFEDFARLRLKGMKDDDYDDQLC", "assay_type": "cell-based"}, "MOR 11S/T-A": {"test_system": "MOR 11S/T-A", "test": "MeNArC β-arrestin2 recruitment assay, MOR 11S/T-A mutant, Hek293", "assay_type": "cell-based"}, "D2R": {"target": "T1, D2R (Homo sapiens, UniProt P14416)", "T1 construct": "expressed in transfected cells; host or cells: Hek293 (D2R cotransfected with GRK2, MeN and ArC)", "T1 sequence (P14416 1-414 isoform P14416-2)": "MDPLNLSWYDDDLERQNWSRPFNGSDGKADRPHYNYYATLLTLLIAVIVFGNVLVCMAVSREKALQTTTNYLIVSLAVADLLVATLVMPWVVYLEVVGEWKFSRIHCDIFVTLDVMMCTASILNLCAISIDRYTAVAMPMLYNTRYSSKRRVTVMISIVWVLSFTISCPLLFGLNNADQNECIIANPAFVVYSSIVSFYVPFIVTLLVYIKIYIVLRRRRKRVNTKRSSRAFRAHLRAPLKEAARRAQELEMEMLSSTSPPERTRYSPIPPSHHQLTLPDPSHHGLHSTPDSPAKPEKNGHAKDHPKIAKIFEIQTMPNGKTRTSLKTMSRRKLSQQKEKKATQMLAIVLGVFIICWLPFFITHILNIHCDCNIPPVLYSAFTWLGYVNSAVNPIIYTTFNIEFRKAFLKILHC", "test": "cell-based", "assay_type": "cell-based"}, "AT1R [2]": {"target": "T2, AT1R (Homo sapiens, UniProt P30556)", "T2 construct": "signal peptide (N); expressed in transfected cells; host or cells: Hek293", "T2 sequence (P30556 1-359)": "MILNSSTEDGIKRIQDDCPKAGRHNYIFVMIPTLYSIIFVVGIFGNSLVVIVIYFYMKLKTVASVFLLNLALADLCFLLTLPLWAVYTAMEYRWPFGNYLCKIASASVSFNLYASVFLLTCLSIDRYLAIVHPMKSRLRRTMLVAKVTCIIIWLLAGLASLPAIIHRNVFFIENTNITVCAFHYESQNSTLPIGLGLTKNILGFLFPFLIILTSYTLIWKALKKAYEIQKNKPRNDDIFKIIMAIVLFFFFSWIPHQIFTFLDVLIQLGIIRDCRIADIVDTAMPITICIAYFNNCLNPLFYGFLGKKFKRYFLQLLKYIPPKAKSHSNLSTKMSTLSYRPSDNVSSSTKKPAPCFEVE", "test": "MeNArC β-arrestin membrane recruitment assay, unmodified AT1R, Hek293", "assay_type": "cell-based"}, "FKBP / FRB": {"target": "T3, FKBP / FRB (UniProt P42345+Q62658)", "T3 construct": "expressed in transfected cells; host or cells: Hek293", "T3 sequence (Q62658 3-108)": "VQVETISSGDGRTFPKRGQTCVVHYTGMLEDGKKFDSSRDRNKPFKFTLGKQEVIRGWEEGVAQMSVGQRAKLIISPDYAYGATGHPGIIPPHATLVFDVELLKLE", "T3 sequence (P42345 2012-2144)": "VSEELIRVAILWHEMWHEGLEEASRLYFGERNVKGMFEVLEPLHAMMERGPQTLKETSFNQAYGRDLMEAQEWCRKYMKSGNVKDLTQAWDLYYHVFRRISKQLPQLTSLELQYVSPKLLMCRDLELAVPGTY", "test": "rapamycin-induced dimerization of FKBP and FRB fused to the N- and C-terminal NanoLuc fragments", "assay_type": "cell-based", "settings": "50 nM rapamycin; Hek293 cotransfected with both fragments"}, "AT1R [3]": {"target": "T2, AT1R", "test": "EeNArC β-arrestin early endosome recruitment assay, unmodified AT1R, Hek293", "assay_type": "cell-based", "settings": "450 mM sucrose, Ang II, early endosomes"}},
  "note": "Where a name gives a salt, the structure may show the parent alone.",
  "data": [
    {"smiles": "CC[C@H](C)[C@H](NC(=O)[C@H](Cc1ccc(O)cc1)NC(=O)[C@@H](NC(=O)[C@H](CCCNC(=N)N)NC(=O)[C@@H](N)CC(=O)O)C(C)C)C(=O)N[C@@H](Cc1c[nH]cn1)C(=O)N1CCC[C@H]1C(=O)N[C@@H](Cc1ccccc1)C(=O)O", "note": "[Ang II, Angiotensin II]", "values": [
      {"measurement": "response in MeNArC and EeNArC assays without receptor", "setting": "[1]", "result": "no response was observed"}
    ]},
    {"smiles": "C[C@@H](NC(=O)[C@@H](N)Cc1ccc(O)cc1)C(=O)NCC(=O)N(C)[C@@H](Cc1ccccc1)C(=O)NCCO", "note": "[DAMGO, [D-Ala^2, N-MePhe^4, Gly-ol]-enkephalin]", "values": [
      {"measurement": "EC80", "setting": "MOR", "result": 60, "unit": "nM"},
      {"measurement": "pEC50 ± SD", "setting": "MOR 11S/T-A; MOR 11S/T-A, β-arrestin2", "result": "6.82 ± 0.19"},
      {"measurement": "efficacy for MOR 11S/T-A compared with WT MOR", "setting": "MOR 11S/T-A; from fold changes", "result": 65, "unit": "%"},
      {"measurement": "response in MeNArC and EeNArC assays without receptor", "setting": "[1]", "result": "no response was observed"}
    ]},
    {"smiles": "CCCN1CCCC(c2cccc(O)c2)C1", "note": "(stereo not shown) [PPP, (3-hydroxyphenyl)-N-propylpiperidine]", "values": [
      {"measurement": "efficacy compared with dopamine", "setting": "D2R", "result": 10, "unit": "%"}
    ]},
    {"smiles": "CC(C)C[C@H]1C(=O)N2CCC[C@H]2[C@]2(O)O[C@](NC(=O)[C@@H]3C=C4c5cccc6[nH]c(Br)c(c56)C[C@H]4N(C)C3)(C(C)C)C(=O)N12", "note": "[bromocriptine]", "values": [
      {"measurement": "EC50", "setting": "D2R", "result": 66.1, "unit": "nM"},
      {"measurement": "efficacy compared with dopamine", "setting": "D2R", "result": 46, "unit": "%"}
    ]},
    {"smiles": "NCCc1ccc(O)c(O)c1", "note": "[dopamine, Dopamine hydrochloride]", "values": [
      {"measurement": "response in MeNArC and EeNArC assays without receptor", "setting": "[1]", "result": "no response was observed"}
    ]},
    {"smiles": "CCCc1nc(C(C)(C)O)c(C(=O)O)n1Cc1ccc(-c2ccccc2-c2nnn[nH]2)cc1", "note": "[olmesartan]", "values": [
      {"measurement": "reversal of agonist-induced β-arrestin recruitment by antagonist added after agonist", "setting": "AT1R [2]; 0.1 μM Ang II pretreatment, absence or presence of sucrose", "result": "could not be reversed"}
    ]},
    {"smiles": "CO[C@H]1C[C@@H]2CC[C@@H](C)[C@@](O)(O2)C(=O)C(=O)N2CCCC[C@H]2C(=O)O[C@H]([C@H](C)C[C@@H]2CC[C@@H](O)[C@H](OC)C2)CC(=O)[C@H](C)/C=C(\\C)[C@@H](O)[C@@H](OC)C(=O)[C@H](C)C[C@H](C)/C=C/C=C/C=C/1C", "note": "[rapamycin]", "values": [
      {"measurement": "increase of basal luminescence signal by addition of rapamycin", "setting": "FKBP / FRB", "result": "~30", "unit": "fold"}
    ]},
    {"smiles": "OC[C@H]1O[C@@](CO)(O[C@H]2O[C@H](CO)[C@@H](O)[C@H](O)[C@H]2O)[C@@H](O)[C@@H]1O", "note": "[sucrose]", "values": [
      {"measurement": "effect of sucrose on agonist response", "setting": "AT1R [2]; 450 mM sucrose, Ang II response, plasma membrane", "result": "no effect on agonist response"},
      {"measurement": "effect of sucrose on agonist effect", "setting": "AT1R [3]", "result": "dramatically blunted"}
    ]},
    {"smiles": "CCN1CCCC1CNC(=O)c1cc(S(N)(=O)=O)ccc1OC", "note": "(stereo not shown) [sulpiride]", "values": [
      {"measurement": "effect of antagonist on agonist-induced luminescence", "setting": "D2R", "result": "strong decay in luminescence down to baseline"}
    ]},
    {"smiles": "CCN(CC)C(=O)N[C@H]1C[C@@H]2c3cccc4[nH]cc(c34)C[C@H]2N(C)C1", "note": "[terguride, Terguride]", "values": [
      {"measurement": "EC50", "setting": "D2R", "result": 9.55, "unit": "nM"},
      {"measurement": "efficacy compared with dopamine", "setting": "D2R", "result": 24, "unit": "%"}
    ]}
  ]
}
